Assay results: PubChem BioAssay AID2060607 (Molecular Pharmacology Branch, DTP, NCI, 2025)

System: 876862-298-R-J1-PDC complex spheroids, viability % test/control
Test: Anticancer human tumor 876862-298-R-J1-PDC patient-derived endometrial carcinoma cell line growth inhibition [CLK]
Settings: for IC50: curve of first compound; for viability, T/C: stronger effect = lower value
In short: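 Patient-derived tumor cells grown as complex spheroids with HUVEC endothelial cells and mesenchymal stem cells, treated with drug combinations. Concentrations descend in half-log steps from near clinical Cmax, or from 10 microM if Cmax unknown.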

[1] = second compound 0.0316 µM, first compound 0.0316 µM
[2] = second compound 0.0316 µM, first compound 0.1 µM
[3] = second compound 0.1 µM, first compound 0.0316 µM
[4] = second compound 0.1 µM, first compound 0.1 µM
[5] = second compound 0.316 µM, first compound 0.0316 µM
[6] = second compound 0.316 µM, first compound 0.1 µM
[7] = second compound 1 µM, first compound 0.0316 µM
[8] = second compound 1 µM, first compound 0.1 µM
[9] = second compound 3.16 µM, first compound 0.0316 µM
[10] = second compound 3.16 µM, first compound 0.1 µM
[11] = second compound 10 µM, first compound 0.0316 µM
[12] = second compound 10 µM, first compound 0.1 µM
[13] = second compound 0.0316 µM, first compound 0.316 µM
[14] = second compound 0.0316 µM, first compound 1 µM
[15] = second compound 0.0316 µM, first compound 3.16 µM
[16] = second compound 0.0316 µM, first compound 10 µM
[17] = second compound 0.1 µM, first compound 0.316 µM
[18] = second compound 0.1 µM, first compound 1 µM
[19] = second compound 0.1 µM, first compound 3.16 µM
[20] = second compound 0.1 µM, first compound 10 µM
[21] = second compound 0.316 µM, first compound 0.316 µM
[22] = second compound 0.316 µM, first compound 1 µM
[23] = second compound 0.316 µM, first compound 3.16 µM
[24] = second compound 0.316 µM, first compound 10 µM
[25] = second compound 1 µM, first compound 0.316 µM
[26] = second compound 1 µM, first compound 1 µM
[27] = second compound 1 µM, first compound 3.16 µM
[28] = second compound 1 µM, first compound 10 µM
[29] = second compound 3.16 µM, first compound 0.316 µM
[30] = second compound 3.16 µM, first compound 1 µM
[31] = second compound 3.16 µM, first compound 3.16 µM
[32] = second compound 3.16 µM, first compound 10 µM
[33] = second compound 10 µM, first compound 0.316 µM
[34] = second compound 10 µM, first compound 1 µM
[35] = second compound 10 µM, first compound 3.16 µM
[36] = second compound 10 µM, first compound 10 µM
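Note: spheroids exposed to drugs for 7 days before readout.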
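Throughout, for viability, T/C: 100% = DMSO vehicle control wells.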

With `Cn1ncnc1[C@H]1c2n[nH]c(=O)c3cc(F)cc(c23)N[C@@H]1c1ccc(F)cc1` + CNC(=O)c1ccc(Nc2nc(OC3CCCC3)c3c(-c4ccc5nc(C)oc5c4)c[nH]c3n2)c(OC)c1 the IC50 (second compound 0.0316 µM) was over 100 nM, the IC50 (second compound 0.1 µM) was under 0.316 nM and the IC50 (second compound 0.316 µM) was under 0.316 nM. It also gave an IC50 (second compound 1 µM) of under 0.316 nM, an IC50 (second compound 3.16 µM) of under 0.316 nM and an IC50 (second compound 10 µM) of under 0.316 nM. For the same molecule, the viability, T/C (second compound 0.0316 µM, first compound 0.000316 µM) was 67.3%, the viability, T/C (second compound 0.0316 µM, first compound 0.001 µM) was 84.6% and the viability, T/C (second compound 0.0316 µM, first compound 0.00316 µM) was 73.4%. The viability, T/C (second compound 0.0316 µM, first compound 0.01 µM) was 79.9%, the viability, T/C [1] was 89.7% and the viability, T/C [2] was 77.5%. It also gave a viability, T/C (second compound 0.1 µM, first compound 0.000316 µM) of 42.2%, a viability, T/C (second compound 0.1 µM, first compound 0.001 µM) of 45.4% and a viability, T/C (second compound 0.1 µM, first compound 0.00316 µM) of 46.7%. It also gave a viability, T/C (second compound 0.1 µM, first compound 0.01 µM) of 46.5%, a viability, T/C [3] of 53% and a viability, T/C [4] of 45.6%. The viability, T/C (second compound 0.316 µM, first compound 0.000316 µM) was 40.9%, the viability, T/C (second compound 0.316 µM, first compound 0.001 µM) was 44.5% and the viability, T/C (second compound 0.316 µM, first compound 0.00316 µM) was 46%. It also gave a viability, T/C (second compound 0.316 µM, first compound 0.01 µM) of 43.3%, a viability, T/C [5] of 44.1% and a viability, T/C [6] of 36.7%. For the same molecule, the viability, T/C (second compound 1 µM, first compound 0.000316 µM) was 31.3%, the viability, T/C (second compound 1 µM, first compound 0.001 µM) was 32.9% and the viability, T/C (second compound 1 µM, first compound 0.00316 µM) was 30%. The viability, T/C (second compound 1 µM, first compound 0.01 µM) was 28.5%, the viability, T/C [7] was 26.8% and the viability, T/C [8] was 27.9%. For the same molecule, the viability, T/C (second compound 3.16 µM, first compound 0.000316 µM) was 22.8%, the viability, T/C (second compound 3.16 µM, first compound 0.001 µM) was 23.2% and the viability, T/C (second compound 3.16 µM, first compound 0.00316 µM) was 19.6%. For the same molecule, the viability, T/C (second compound 3.16 µM, first compound 0.01 µM) was 21.5%, the viability, T/C [9] was 21.7% and the viability, T/C [10] was 18.5%. It also gave a viability, T/C (second compound 10 µM, first compound 0.000316 µM) of 21.1%, a viability, T/C (second compound 10 µM, first compound 0.001 µM) of 22.4% and a viability, T/C (second compound 10 µM, first compound 0.00316 µM) of 20%. The viability, T/C (second compound 10 µM, first compound 0.01 µM) was 23.3%, the viability, T/C [11] was 17.5% and the viability, T/C [12] was 16.2%.
`Nc1ccn(C2OC(CO)C(O)C2(F)F)c(=O)n1` (stereo unspecified) + CNC(=O)c1ccc(Nc2nc(OC3CCCC3)c3c(-c4ccc5nc(C)oc5c4)c[nH]c3n2)c(OC)c1 gave an IC50 (second compound 0.0316 µM) of under 31.6 nM, an IC50 (second compound 0.1 µM) of under 31.6 nM and an IC50 (second compound 0.316 µM) of under 31.6 nM. It also gave an IC50 (second compound 1 µM) of under 31.6 nM, an IC50 (second compound 3.16 µM) of under 31.6 nM and an IC50 (second compound 10 µM) of under 31.6 nM. It also gave a viability, T/C [1] of 15.1%, a viability, T/C [2] of 7.66% and a viability, T/C [13] of 9.02%. The viability, T/C [14] was 6.2%, the viability, T/C [15] was 7.72% and the viability, T/C [16] was 9.97%. It also gave a viability, T/C [3] of 16.5%, a viability, T/C [4] of 9.17% and a viability, T/C [17] of 9.31%. It also gave a viability, T/C [18] of 7.24%, a viability, T/C [19] of 7.42% and a viability, T/C [20] of 10.1%. The viability, T/C [5] was 17.7%, the viability, T/C [6] was 7.67% and the viability, T/C [21] was 7.58%. It also gave a viability, T/C [22] of 5.78%, a viability, T/C [23] of 7.22% and a viability, T/C [24] of 6.26%. For the same molecule, the viability, T/C [7] was 14.6%, the viability, T/C [8] was 8.47% and the viability, T/C [25] was 6.7%. For the same molecule, the viability, T/C [26] was 6.04%, the viability, T/C [27] was 6.8% and the viability, T/C [28] was 5.73%. It also gave a viability, T/C [9] of 10.5%, a viability, T/C [10] of 5.98% and a viability, T/C [29] of 5.8%. For the same molecule, the viability, T/C [30] was 6.15%, the viability, T/C [31] was 4.91% and the viability, T/C [32] was 5.13%. For the same molecule, the viability, T/C [11] was 8.61%, the viability, T/C [12] was 5.73% and the viability, T/C [33] was 5.74%. For the same molecule, the viability, T/C [34] was 5.44%, the viability, T/C [35] was 6.11% and the viability, T/C [36] was 3.96%.
Work on `O=c1[nH]cc(F)c(=O)[nH]1` + CNC(=O)c1ccc(Nc2nc(OC3CCCC3)c3c(-c4ccc5nc(C)oc5c4)c[nH]c3n2)c(OC)c1 yielded an IC50 (second compound 0.0316 µM) of over 10000 nM, an IC50 (second compound 0.1 µM) of under 31.6 nM and an IC50 (second compound 0.316 µM) of under 31.6 nM. It also gave an IC50 (second compound 1 µM) of under 31.6 nM, an IC50 (second compound 3.16 µM) of under 31.6 nM and an IC50 (second compound 10 µM) of under 31.6 nM. It also gave a viability, T/C [1] of 68.7%, a viability, T/C [2] of 84.1% and a viability, T/C [13] of 81.4%. It also gave a viability, T/C [14] of 94.6%, a viability, T/C [15] of 57.9% and a viability, T/C [16] of 49.6%. The viability, T/C [3] was 46.7%, the viability, T/C [4] was 49.5% and the viability, T/C [17] was 49.2%. For the same molecule, the viability, T/C [18] was 45%, the viability, T/C [19] was 45.3% and the viability, T/C [20] was 41.6%. For the same molecule, the viability, T/C [5] was 49.7%, the viability, T/C [6] was 42% and the viability, T/C [21] was 41.9%. The viability, T/C [22] was 40.5%, the viability, T/C [23] was 40.1% and the viability, T/C [24] was 38.5%. The viability, T/C [7] was 31.5%, the viability, T/C [8] was 32.2% and the viability, T/C [25] was 32.5%. It also gave a viability, T/C [26] of 31.1%, a viability, T/C [27] of 24% and a viability, T/C [28] of 24.7%. For the same molecule, the viability, T/C [9] was 25%, the viability, T/C [10] was 25.9% and the viability, T/C [29] was 22.9%. For the same molecule, the viability, T/C [30] was 19.9%, the viability, T/C [31] was 18% and the viability, T/C [32] was 14.2%. The viability, T/C [11] was 20.3%, the viability, T/C [12] was 21.2% and the viability, T/C [33] was 20.1%. The viability, T/C [34] was 21.6%, the viability, T/C [35] was 17.6% and the viability, T/C [36] was 13.6%.
